Source: PubChem BioAssay (NCI)
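Where inhibition never reached the appropriate level, the endpoint shown equals the highest concentration tested. Otherwise, values were interpolated linearly from a five-concentration, 48-hour dose response in 96-well plates. GI50 = concentration required for 50% inhibition of growth. The concentration for full growth arrest is given as TGI.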 Where a SMILES comes first, the peptide text is derived from it. The star is where a group is joined. Boc = CC(C)(C)OC(=O)*

Tests used:
Assay in all cases: DTP human tumour cell line panel, 48 h
[1] = test system: RPMI-8226 leukemia
[2] = test system: HT29 colon
[3] = test system: SNB-75 CNS
[4] = test system: MOLT-4 leukemia
[5] = test system: EKVX NSCLC
[6] = test system: TK-10 renal
[7] = test system: M14 melanoma
[8] = test system: NCI-H522 lung
[9] = test system: NCI-H226 lung
[10] = test system: T-47D breast

SMILES	TGI [1] [µM]	TGI [2] [µM]	TGI [3] [µM]	TGI [4] [µM]	TGI [5] [µM]	TGI [6] [µM]	TGI [7] [µM]	TGI [8] [µM]	TGI [9] [µM]	TGI [10] [µM]	GI50 [3] [µM]
c1ccc(C2C3=C(Nc4ncnn42)c2ccccc2C3)cc1 (configuration not stated)	> 100	> 100	> 100	> 100	> 100	> 100	> 100	26.5			
COc1ccc(N2C(=O)C3c4[nH]c5ccc(OCc6ccccc6)cc5c4C4CCC(C(C)(C)C)CC4C3C2=O)cc1 (configuration not stated)	> 100	> 100		> 100	> 100	> 100	> 100	> 100	> 100	55.5	
NC(C(F)(F)F)(C(F)(F)F)P(=O)(Cc1ccccc1)Cc1ccccc1	> 100	> 100	> 100	> 100	> 100	> 100	> 100			> 100	
COc1ccc(C2Oc3c(cc(O)c(OC)c3C)[C@@H]2C)cc1OC (some centres not stated)	> 100	> 100	> 100	> 100	> 100	> 100	> 100	> 100	> 100		
CC1(C)OCC(COC(=O)C=[N+]=[N-])O1 (configuration not stated)	> 100	> 100		> 100	> 100	> 100		> 100	> 100		
Nc1nc2cc3nc(N)c(N)nc3cc2nc1N	> 100	> 100	> 100	> 100	> 100	> 100	> 100	> 100	> 100		
S=C(N/N=C\C=N/NC(=S)N1CCCCC1)N1CCCCC1	> 100	> 100	> 100		> 100	> 100	> 100	> 100	> 68.1		
CC(O[Si](c1ccccc1)(c1ccccc1)C(C)(C)C)[C@H](NC(=O)OC(C)(C)C)C(=O)O[Si](c1ccccc1)(c1ccccc1)C(C)(C)C (some centres not stated)	62.6	23.9	29	53.1	26.4	31.1	29.4			25.7	
CC1(O)CC(C(F)(F)F)(C(F)(F)F)OC1=O (configuration not stated)	> 10	> 10		> 10	> 10	> 10	> 10	> 10	> 10	> 10	
COc1cc(O)c(/C=N/N=C(\N)NO)c(OC)c1	> 10	> 10	> 10		> 10	> 10	> 10	> 10	> 10	> 10	
O=C(/C=C/c1ccc(O)c([N+](=O)[O-])c1)CC(=O)/C=C/c1ccc(O)c([N+](=O)[O-])c1	34.5	> 100	> 100		> 100	> 100	> 100	> 100	> 100		
CC(C)(C)C1=C(Br)C(Br)(C(C)(C)C)OP1(=O)c1ccccc1 (configuration not stated)		> 100	> 100		> 100	> 100	> 100	> 100		> 100	
O=C(CC(=O)n1nc(-c2ccccc2)c(N=Nc2ccccc2C(=O)O)c1-c1ccccc1)Nc1ccc(Cl)cc1	> 100	> 100	83.1	27.9	> 100	> 100	> 100		> 100	> 100	
CCOP(=O)(OCC)/C(C#N)=C/c1cnc(-c2ccccc2)[nH]1	> 100	> 100	> 100	> 100	> 100		> 100	> 100	> 100		
COc1cc2c(cc1OC)C1=Cc3cc(OC)c(OC)cc3C(C)N1C=C2 (configuration not stated)	> 100	> 100	> 100	> 100	> 100	> 100	> 100		> 100	> 100	
N.N.N.O=[N+]([O-])[O-].O=[N+]([O-])[O-].O=[N+]([O-])[O-].O=[N+]([O-])[O-].[Co+3]	> 100	> 100	> 100	> 100	> 100	> 100	> 100	> 100			
Cn1cc2ccccc2c1-c1nc(N)nc(F)n1	> 100	> 100	> 100	> 100	> 100	> 100	> 100	> 100	> 100		
O=C(O)c1c2c(cc3c1CC1(Cc4ccccc4C1)C3)CCC2	> 100	> 100	> 100	> 100	> 100	> 100		> 100	> 100	> 100	
CC[C@]1(Cc2ccc(OC)c(OC)c2)CN(S(=O)(=O)c2ccc(C)cc2)C[C@@H]1OC(C)=O	> 100	> 100	> 100	> 100	> 100	> 100	> 100		> 100	> 100	
COC(=O)CNC(=O)C(Cc1ccccc1)NC(=O)C(CCSC)NC(=O)C(Cc1ccc(O)cc1)NC(=O)OC(C)(C)C (configuration not stated) (Boc-YMFG-OMe; configuration not given here)	50.2	> 100	> 100	38.9		> 100	> 100	43	> 100	> 100	
O=C(NNC(=S)Nc1ccc(Cl)cc1)c1cc(-c2ccccc2)nc2ccccc12	48	34.9	39.8	27.7		21.7	18.7	23.2	28.9	11.6	
Nc1ccc2nc(-c3ccccn3)c(-c3ccccn3)nc2c1	> 100		> 100	> 100	> 100	> 100	> 100	> 100	> 100	> 100	
Cc1c(F)c(N)c2c(=O)cc(-c3ccc(NC(=O)CN(C)C)c(F)c3)oc2c1F	> 83	> 100	> 100	> 71.8		> 100	> 100	> 100	> 100	> 100	32.9
